In ChEMBL document CHEMBL3286214, “Tyrosinase inhibitory activity of a glucosylated hydroxystilbene in mouse melan-a melanocytes” (J Nat Prod, 2014):
Calls of active or inactive are those of the source. The rule behind the calls is not given here.

Legend:
[1] = target: T1, Tyrosinase (Mus musculus) (UniProt P11344); assay: Inhibition of tyrosinase in mouse Melan-a cells after 3 days by L-DOPA oxidation assay in presence of 1 uM forskolin melanogenesis inducer; assay type: cell-based
T1 sequence (whole entry): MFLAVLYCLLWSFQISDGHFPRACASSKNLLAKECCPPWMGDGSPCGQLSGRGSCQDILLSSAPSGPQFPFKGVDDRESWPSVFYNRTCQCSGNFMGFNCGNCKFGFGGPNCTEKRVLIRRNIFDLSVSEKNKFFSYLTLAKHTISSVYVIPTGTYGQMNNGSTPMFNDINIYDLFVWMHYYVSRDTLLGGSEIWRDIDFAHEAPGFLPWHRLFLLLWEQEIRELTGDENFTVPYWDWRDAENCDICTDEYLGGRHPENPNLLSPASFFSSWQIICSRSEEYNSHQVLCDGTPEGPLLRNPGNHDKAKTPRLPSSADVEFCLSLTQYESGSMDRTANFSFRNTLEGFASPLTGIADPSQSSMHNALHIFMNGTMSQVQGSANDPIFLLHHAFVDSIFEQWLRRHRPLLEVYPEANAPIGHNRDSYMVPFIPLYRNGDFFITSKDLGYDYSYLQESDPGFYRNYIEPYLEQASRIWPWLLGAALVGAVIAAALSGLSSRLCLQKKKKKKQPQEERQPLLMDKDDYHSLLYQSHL

[2] = target: T1, Tyrosinase (Mus musculus); assay: Inhibition of tyrosinase in mouse Melan-a at 60 uM after 3 days by L-DOPA oxidation assay in presence of 1 uM forskolin melanogenesis inducer (reference value: 162%); set-up: scale not given: the % may be the effect or the level left
[3] = target: T1, Tyrosinase (Mus musculus); assay: Inhibition of tyrosinase in mouse Melan-a cells after 3 days by L-DOPA oxidation assay in presence of 20 nM TPA melanogenesis inducer; assay type: cell-based
[4] = Suppression of MITF expression in mouse Melan-a cells using forskolin-supplemented medium incubated for 1 day by Western blotting analysis; assay type: functional, cell-based
Tyrosinase [5] = target: T2, Tyrosinase (Mus musculus, UniProt P11344); assay: Inhibition of tyrosinase in mouse Melan-a cells assessed as decrease in L-DOPA Vmax at 120 uM by Lineweaver-Burk plot; assay type: cell-based
T2 sequence (P11344 whole entry): T1 sequence (whole entry)

Melan-a [6] = assay: Effect on tyrosinase localization in mouse Melan-a cells assessed as endoplasmic reticulum trapping at 60 uM incubated for 3 days by confocal immunofluorescence microscopy; assay type: functional, cell-based
Melan-a [7] = assay: Suppression of tyrosinase/TRP-1 complex formation in mouse Melan-a cells using forskolin-supplemented medium at 120 uM incubated for 3 days by Western blotting analysis; assay type: functional, cell-based
Tyrosinase [8] = target: T2, Tyrosinase; assay: Inhibition of tyrosinase in mouse Melan-a cells assessed as decrease in L-DOPA Vmax at 240 uM by Lineweaver-Burk plot; assay type: cell-based
[9] = target: T1, Tyrosinase (Mus musculus); assay: Inhibition of tyrosinase in mouse Melan-a cells assessed as decrease in L-DOPA Vmax by Lineweaver-Burk plot; assay type: cell-based
Melan-a [10] = assay: Effect on tyrosinase maturation in mouse Melan-a cells assessed as immature Endo H-sensitive form measured in endoplasmic reticulum using forskolin-supplemented medium at 60 to 120 uM by Western blotting analysis; assay type: functional, cell-based
Melan-a [11] = assay: Effect on tyrosinase localization in mouse Melan-a cells assessed as lysosome at 60 uM incubated for 3 days by confocal immunofluorescence microscopy; assay type: functional, cell-based
[12] = Suppression of TRP1 expression in mouse Melan-a cells using forskolin-supplemented medium at 60 to 120 uM incubated for 1 day by Western blotting analysis; assay type: functional, cell-based

inhibition [1] | Activity [2] [%] | inhibition [3] | Ki (Tyrosinase [5]) [µM] | Ki (Tyrosinase [8]) [µM] | inhibition [9] | SMILES | inhibition [4] | Activity (Melan-a [6]) | inhibition (Melan-a [7]) | Activity (Melan-a [10]) | Activity (Melan-a [11]) | inhibition [12]
Dose-dependent effect | 103 | Dose-dependent effect | 2800 | 2500 | Dose-dependent effect | OC[C@H]1O[C@@H](Oc2c(O)cc(O)cc2/C=C/c2ccc(O)cc2)[C@H](O)[C@@H](O)[C@@H]1O | Dose-dependent effect | inactive | Active | inactive | inactive | inactive
 |  |  | 2900 |  |  | Oc1ccc(/C=C/c2cc(O)cc(O)c2)cc1 [RESVERATROL] |  |  |  |  |  | 
